# Assay results reported in patent US8304577B2, “Modulators of G protein-coupled receptor 88” (Bristol-Myers Squibb Company, priority 2009, dated 2012).
# Target: G protein-coupled receptor 88 (GPR88) (Homo sapiens, UniProt Q9GZN0)
# Test: GPR88 functional assay: EC50 of Table 2 (GTPγS assay and cAMP HTRF assay described; table does not say which)
# Format: cell-based
# Details: class symbol; read-out: Range (EC50)
# Procedure: 96 well GTPγS assay plates were purchased from Perkin Elmer. Wheat Germ Agglutinin PVT SPA beads and ^35S-GTPγS were purchased from Amersham GDP, GTPγS and all buffer reagents were from Sigma. 384 well white NBS plates were purchased from corning. Pertussis toxin was purchased from Calbiochem. All cell culture reagents were purchased from Invitrogen. Forskolin was purchased from Sigma. The cAMP HTRF kit was purchased fron Cisbio International.
# The GTPγS assay buffer consisted of 10 mM MgCl2, 180 mM NaCl, 200 uM GDP, 0.167 mg/mL DTT, 1 mM EGTA and 20 mM HEPES pH7.4. This buffer was used for dilution of membranes, beads, and ^35S GTPγS components. To each well of the 96 well assay plate 48 ul assay buffer, 2 ul of 100× compound, 50 ul membrane solution (0.2 ug/ul), 50 ul ^35S GTPγS solution (0.8 nM) and 50 ul of SPA beads (10 mg/mL). Non-specific binding was determined by the addition of cold GTPγS to control wells. The plates were sealed with clear sealing tape and incubated at room temperature for 1 hour. GTPγS activity was detected using a Wallac Micro-Beta Trilux liquid scintillation counter. Non-specific binding was determined using 10 uM cold GTPγS.
# The cAMP HTRF assay is modified from the Cisbio International kit procedure 62AM4PEJ. Assay plates were prepared by stamping 0.1 ul of 100× compound stock solutions diluted in DMSO or DMSO alone into 384 well NBS plates. The cAMP HTRF assay was performed using cells in suspension. The cAMP HTRF assay buffer consisted of Hank's Balanced Salt Solution (HBSS), 2 mM CaCl2, 5 mM MgCl2, 20 mM HEPES and 1 mM 3-isobutyl-1-methylxanthine (IBMX) (added fresh at the time of assay). For pertussis toxin treatment pertussis toxin (100 ng/mL) was added to culture medium for 16 hours prior to assay. Confluent cells were disrupted with cell dissociation buffer count cells then centrifuged at 1000×g for 5 minutes. The cell pellet was resuspended in assay buffer alone for basal cAMP measurements or with 0.75 uM forskolin (added immediately prior to addition to wells) for addition to all other wells. Using a Multidrop 384 (Lab systems) 10 ul of cell suspension was added to each well containing compound or DMSO. The plates were incubated at room temperature for 30 minutes covered. During this time the cAMP standard curve was prepared as per manufacturer's instruction. At the end of the incubation 10 ul of anti-cAMP cryptate and 10 ul cAMP-XL, diluted in manufacturer's lysis buffer, were added to each well. The plated were incubated at room temperature for 60 minutes covered then read on an Envision plate reader (Perkin Elmer) and the 665 nm/620 nm fluorescence ratio determined Fluorescence ratio values were converted to molar cAMP concentrations from the standard curve using the GraphPad Prism program.
# Chain of G protein-coupled receptor 88 (GPR88) (Q9GZN0 whole entry, species assumed): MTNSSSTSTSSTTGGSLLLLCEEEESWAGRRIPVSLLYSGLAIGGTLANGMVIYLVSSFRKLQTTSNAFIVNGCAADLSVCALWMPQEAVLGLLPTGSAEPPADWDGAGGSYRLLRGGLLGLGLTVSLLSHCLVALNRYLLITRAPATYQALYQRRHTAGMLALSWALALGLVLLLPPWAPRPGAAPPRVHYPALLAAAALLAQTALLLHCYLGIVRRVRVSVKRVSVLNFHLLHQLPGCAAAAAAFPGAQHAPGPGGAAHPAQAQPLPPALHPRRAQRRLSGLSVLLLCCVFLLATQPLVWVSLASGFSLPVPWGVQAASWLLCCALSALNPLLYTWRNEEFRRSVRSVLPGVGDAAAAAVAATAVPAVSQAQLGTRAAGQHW
row,Structure (SMILES),EC50 [nM]
1,"CCCC(C)COc1ccc([C@H](CNC(=O)[C@@H](N)CC2CC2)NC(=O)[C@@H](C)c2ccccc2)cc1 (stereo partly drawn) [Example 28, (2S)-2-Amino-3-cyclopropyl-N-((2R)-2-(4-(2-methylpentyloxy)phenyl)-2-((S)-2-phenylpropanamido)ethyl)propanamide]",100 to 200
2,"CCCC(C)COc1ccc([C@H](CNCC2CC2)NC(=O)[C@@H](C)c2ccccc2)cc1 (stereo partly drawn) [Example 7, (2S)-N-((1R)-2-(Cyclopropylmethylamino)-1-(4-(2-methylpentyloxy)phenyl)ethyl)-2-phenylpropanamide]",39 to 99
3,"CCCC(C)COc1ccc([C@H](CNC(=O)[C@@H](C)N)NC(=O)[C@@H](C)c2ccccc2)cc1 (stereo partly drawn) [Example 29, (2R)-2-Amino-N-((2R)-2-(4-(2-methylpentyloxy)phenyl)-2-((S)-2-phenylpropanamido)ethyl)propanamide]",100 to 200
4,"CCCC(C)COc1ccc([C@H](CN2CCOCC2)NC(=O)[C@@H](C)c2ccccc2)cc1 (stereo partly drawn) [Example 35, (2S)-N-((1R)-1-(4-(2-Methylpentyloxy)phenyl)-2-morpholinoethyl)-2-phenylpropanamide]",100 to 200
5,"CCCC(C)COc1ccc([C@H](CNCC2(N)CCCC2)NC(=O)[C@@H](C)c2ccccc2)cc1 (stereo partly drawn) [Example 15, (2S)-N-((1R)-2-((1-Aminocyclopentyl)methylamino)-1-(4-(2-methylpentyloxy)phenyl)ethyl)-2-phenylpropanamide]",39 to 99
6,"CCCC(C)COc1ccc([C@H](CNC(=O)[C@@H](N)[C@@H](C)CC)NC(=O)[C@@H](C)c2ccccc2)cc1 (stereo partly drawn) [Example 19, (2S,3S)-2-Amino-3-methyl-N-((2R)-2-(4-(2-methylpentyloxy)phenyl)-2-((S)-2-phenylpropanamido)ethyl)pentanamide]",39 to 99
7,"CCCC(C)COc1ccc([C@H](CNC(=O)[C@H](N)CCC)NC(=O)[C@@H](C)c2ccccc2)cc1 (stereo partly drawn) [Example 31, (2R)-2-Amino-N-((2R)-2-(4-(2-methylpentyloxy)phenyl)-2-((S)-2-phenylpropanamido)ethyl)pentanamide]",100 to 200
8,"CCCC(C)COc1ccc(C(CN2CCN(C)CC2)NC(=O)[C@@H](C)c2ccccc2)cc1 (mixture of isomers) [Example 36, (2S)-N-(1-(4-(2-Methylpentyloxy)phenyl)-2-(4-methylpiperazin-1-yl)ethyl)-2-phenylpropanamide]",100 to 200
9,"CCCC(C)COc1ccc([C@H](CNCC2CCOC2)NC(=O)[C@@H](C)c2ccccc2)cc1 (stereo partly drawn) [Example 14, (2S)-N-((1R)-1-(4-(2-Methylpentyloxy)phenyl)-2-((tetrahydrofuran-3-yl)methylamino)ethyl)-2-phenylpropanamide]",100 to 200
10,"CCCC(C)COc1ccc([C@H](CN(C)C)NC(=O)[C@@H](C)c2ccccc2)cc1 (stereo partly drawn) [Example 6, (2S)-N-((1R)-2-(Dimethylamino)-1-(4-(2-methylpentyloxy)phenyl)ethyl)-2-phenylpropanamide]",39 to 99
11,"CCCC(C)COc1ccc([C@H](CNC(=O)[C@H](C)N)NC(=O)[C@@H](C)c2ccccc2)cc1 (stereo partly drawn) [Example 23, (2S)-2-Amino-N-((2R)-2-(4-(2-methylpentyloxy)phenyl)-2-((S)-2-phenylpropanamido)ethyl)propanamide]",39 to 99

# Same assay, conditions: exact value given; read-out: Range (EC50)
row,Structure (SMILES),EC50 [nM]
1,"CCCC(C)COc1ccc([C@H](CNC[C@@H]2CCCN2)NC(=O)[C@@H](C)c2ccccc2)cc1 (stereo partly drawn) [Example 16, (2S)-N-((1R)-1-(4-(2-Methylpentyloxy)phenyl)-2-((S)-pyrrolidin-2-ylmethylamino)ethyl)-2-phenylpropanamide]",100
2,"CCCC(C)COc1ccc([C@H](CNC[C@H]2CCCN2)NC(=O)[C@@H](C)c2ccccc2)cc1 (stereo partly drawn) [Example 18, (2S)-N-((1R)-1-(4-(2-Methylpentyloxy)phenyl)-2-((R)-pyrrolidin-2-ylmethylamino)ethyl)-2-phenylpropanamide]",154
3,"CCCC(C)COc1ccc([C@H](CN)NC(=O)[C@@H](C)c2ccccc2)cc1 (stereo partly drawn) [Example 5, (2S)-N-((1R)-2-Amino-1-(4-(2-methylpentyloxy)phenyl)ethyl)-2-phenylpropanamide]",54
